Measurements: paper PMC9774391 (ACS Omega, 2022)

Columns and labels:
AChE = AChE (Homo sapiens, UniProt P22303); assay: biochemical; conditions: for inhibition at 1000 µM: 10^–3 M; for inhibition at 100 µM: 10^–4 M; for inhibition at 10 µM: 10^–5 M; for inhibition at 1 µM: 10^–6 M; for inhibition at 0.1 µM: 10^–7 M; for inhibition at 0.01 µM: 10^–8 M; for inhibition at 0.001 µM: 10^–9 M
Method: (§1) According to the modified Ellman approach outlined in our team’s earlier work, the AChE and BChE inhibitory activities of the obtained compounds were evaluated.[18]−[21]

BChE = BChE (Homo sapiens, UniProt P06276); assay: biochemical; conditions: for inhibition at 1000 µM: 10^–3 M; for inhibition at 100 µM: 10^–4 M
Method: as §1

MAO-A = target: T1, MAO-A (Homo sapiens, UniProt P21397); assay: In vitro MAO-A inhibition assay (fluorometric); assay type: biochemical; conditions: for inhibition at 1000 µM: 10^–3 M; for inhibition at 100 µM: 10^–4 M
T1 sequence (P21397 1-527): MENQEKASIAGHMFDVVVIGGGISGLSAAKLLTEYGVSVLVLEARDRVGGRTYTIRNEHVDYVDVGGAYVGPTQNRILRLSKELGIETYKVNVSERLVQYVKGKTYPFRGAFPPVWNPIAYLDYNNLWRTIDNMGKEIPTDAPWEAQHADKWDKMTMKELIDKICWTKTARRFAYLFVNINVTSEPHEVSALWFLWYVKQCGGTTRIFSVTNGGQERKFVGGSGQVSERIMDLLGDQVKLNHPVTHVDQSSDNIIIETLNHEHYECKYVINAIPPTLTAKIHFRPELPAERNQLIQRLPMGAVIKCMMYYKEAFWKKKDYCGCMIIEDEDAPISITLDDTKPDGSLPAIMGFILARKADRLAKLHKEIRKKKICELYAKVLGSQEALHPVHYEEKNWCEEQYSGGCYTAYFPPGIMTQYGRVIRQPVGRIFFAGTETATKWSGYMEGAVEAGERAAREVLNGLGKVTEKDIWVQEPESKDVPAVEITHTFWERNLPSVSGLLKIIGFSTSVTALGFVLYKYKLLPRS

MAO-B = target: T2, MAO-B (Homo sapiens, UniProt P27338); assay: In vitro MAO-B inhibition assay (fluorometric); assay type: biochemical; conditions: for inhibition at 1000 µM: 10^–3 M; for inhibition at 100 µM: 10^–4 M
T2 sequence (P27338 1-520): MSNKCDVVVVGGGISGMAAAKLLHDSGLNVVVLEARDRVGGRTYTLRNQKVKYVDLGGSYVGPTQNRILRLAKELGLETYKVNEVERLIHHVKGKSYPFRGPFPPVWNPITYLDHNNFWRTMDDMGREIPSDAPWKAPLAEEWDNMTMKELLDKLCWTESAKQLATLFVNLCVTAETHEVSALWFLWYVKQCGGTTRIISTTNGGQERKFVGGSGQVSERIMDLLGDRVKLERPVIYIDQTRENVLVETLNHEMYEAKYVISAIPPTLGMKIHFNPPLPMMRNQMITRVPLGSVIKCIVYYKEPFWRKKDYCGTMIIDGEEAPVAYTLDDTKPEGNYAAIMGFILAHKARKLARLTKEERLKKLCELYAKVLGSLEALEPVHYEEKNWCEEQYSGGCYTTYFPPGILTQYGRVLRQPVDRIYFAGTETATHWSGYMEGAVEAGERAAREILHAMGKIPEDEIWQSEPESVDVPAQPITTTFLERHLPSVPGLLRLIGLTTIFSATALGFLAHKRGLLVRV

[1] = DPPH free-radical scavenging activity assay; conditions: for IC50: serial dilution 10^–3–10^–9 M, read-out: IC50 on DPPH antioxidant activity
Method: This approach is based on evaluating the free-radical scavenging abilities of the stable 1,1-diphenyl-2-picrylhydrazyl (DPPH) radical. To create the DPHH solution, 9.86 mg of DPPH was weighed and diluted to 25 mL with methanol. The test wells were then filled with 100 μL of the DPPH solution and 100 μL of the test solutions. Only 200 μL of methanol was used for the blank reading, while the control reading required the usage of 100 μL each of methanol and the DPPH solution. Following incubation, a spectrophotometric measurement at 517 nm was carried out.[26],[27]

Cytotoxicity test (MTT) = assay type: cell-based; conditions: NIH/3T3 mouse embryonic fibroblast cells (ATCC CRL-1658), NIH/3T3 mouse fibroblast healthy cell line
Method: The NIH/3T3 cells were incubated according to the manufacturer’s recommendations. In 96-well plates, NIH/3T3 cells were seeded at a density of 1 × 10^4 cells per well. The MTT test was conducted in line with the previously mentioned standards.[19],[22],[23],[28],[30]

Beta Amyloid 1–42 (Aβ42) = target: T3, Beta Amyloid 1–42 (Aβ42) (Homo sapiens, UniProt P05067); assay: Beta Amyloid 1–42 (Aβ42) inhibitor screening assay; assay type: biochemical; conditions: 10^–4 M; read-out: % β-amyloid plaque inhibition
T3 construct: The Beta Amyloid 1–42 (Aβ42) Ligand Screening Assay kit; purchased BioVision, Milpitas, CA
Text: The Beta Amyloid 1–42 (Aβ42) Ligand Screening Assay kit (BioVision, Milpitas, CA) technique based on the fluorometric approach served as the basis for the experimental process.[21],[28],[29]

BChE, sequence (P06276 29-602): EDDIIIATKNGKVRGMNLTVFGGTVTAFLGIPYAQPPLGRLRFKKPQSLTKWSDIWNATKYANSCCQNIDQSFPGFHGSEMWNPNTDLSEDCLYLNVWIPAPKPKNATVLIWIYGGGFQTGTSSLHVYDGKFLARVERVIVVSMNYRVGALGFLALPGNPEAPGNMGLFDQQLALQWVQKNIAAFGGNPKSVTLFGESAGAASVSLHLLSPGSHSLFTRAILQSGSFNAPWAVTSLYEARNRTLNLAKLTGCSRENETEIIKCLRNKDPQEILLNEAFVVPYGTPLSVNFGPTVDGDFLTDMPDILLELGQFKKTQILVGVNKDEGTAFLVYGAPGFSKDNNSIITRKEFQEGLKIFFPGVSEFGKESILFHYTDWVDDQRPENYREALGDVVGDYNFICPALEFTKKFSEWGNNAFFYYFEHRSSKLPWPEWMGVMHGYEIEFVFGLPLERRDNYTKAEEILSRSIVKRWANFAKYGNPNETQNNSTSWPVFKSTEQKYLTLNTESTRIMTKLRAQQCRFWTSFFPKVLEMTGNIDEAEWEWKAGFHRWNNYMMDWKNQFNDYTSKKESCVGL
AChE, sequence (P22303 32-614): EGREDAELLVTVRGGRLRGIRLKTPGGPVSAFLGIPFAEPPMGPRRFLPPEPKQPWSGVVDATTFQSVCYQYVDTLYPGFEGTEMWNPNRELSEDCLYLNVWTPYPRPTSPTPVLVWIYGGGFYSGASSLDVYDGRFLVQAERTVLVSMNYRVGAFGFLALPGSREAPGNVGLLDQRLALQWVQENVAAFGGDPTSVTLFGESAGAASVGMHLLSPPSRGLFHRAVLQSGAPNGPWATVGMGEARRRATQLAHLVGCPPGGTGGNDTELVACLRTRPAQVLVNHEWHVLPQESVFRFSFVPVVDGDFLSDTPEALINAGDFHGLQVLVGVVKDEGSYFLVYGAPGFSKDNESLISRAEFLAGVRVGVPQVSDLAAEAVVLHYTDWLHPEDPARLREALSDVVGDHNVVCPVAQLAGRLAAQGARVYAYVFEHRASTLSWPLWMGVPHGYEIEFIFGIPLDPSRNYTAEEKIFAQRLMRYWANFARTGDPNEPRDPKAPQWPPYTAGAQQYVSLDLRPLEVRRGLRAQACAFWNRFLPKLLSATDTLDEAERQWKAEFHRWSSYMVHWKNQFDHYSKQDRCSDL
T3 sequence (P05067 672-713 limits assumed): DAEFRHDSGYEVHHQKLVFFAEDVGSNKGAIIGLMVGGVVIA

| Structure (SMILES) | IC50 (AChE) [nM] | inhibition at 1000 µM (AChE) [%] | inhibition at 100 µM (AChE) [%] | inhibition at 10 µM (AChE) [%] | inhibition at 1 µM (AChE) [%] | inhibition at 0.1 µM (AChE) [%] | inhibition at 0.01 µM (AChE) [%] | inhibition at 0.001 µM (AChE) [%] | inhibition at 1000 µM (BChE) [%] | inhibition at 100 µM (BChE) [%] | inhibition at 1000 µM (MAO-A) [%] | inhibition at 100 µM (MAO-A) [%] | inhibition at 1000 µM (MAO-B) [%] | inhibition at 100 µM (MAO-B) [%] | IC50 (Cytotoxicity test (MTT)) [µM] | inhibition at 100 µM (Beta Amyloid 1–42 (Aβ42)) [%] | other results |
| --- | --- | --- | --- | --- | --- | --- | --- | --- | --- | --- | --- | --- | --- | --- | --- | --- | --- |
| COc1ccc2c(c1)C/C(=C\c1ccc(NC(=O)CN3CCN(CCCO)CC3)cc1)C2=O [D19] | 32.4 ± 1.2 | 95.2 ± 1.65 | 92.7 ± 1.25 | 89.2 ± 1.08 | 82.1 ± 0.988 | 70.7 ± 1.07 | 33.6 ± 0.624 | 20.6 ± 0.596 | 83.5 ± 1.37 | 32.5 ± 0.337 | 60.9 ± 1.86 | 25.3 ± 0.632 | 90.2 ± 1.46 | 43.2 ± 0.877 | 10.5 ± 0.517 |  | % DPPH free-radical scavenging activity ([1]; concentration not stated in the sentence (Figure 6)): ≥ 90%; IC50 [1]: 362 ± 15 nM |
| COc1ccc2c(c1)C(=O)/C(=C/c1ccc(NC(=O)CN3CCN(CCCO)CC3)cc1)C2 [D20] | 31.1 ± 1.1 | 98.3 ± 1.11 | 91.1 ± 1.36 | 86.3 ± 1.25 | 77.2 ± 0.975 | 68.26 ± 0.633 | 40.2 ± 0.528 | 21.1 ± 0.429 | 82.6 ± 1.05 | 20.1 ± 0.277 | 81.86 ± 0.243 | 43.29 ± 0.429 | 83.6 ± 1.04 | 41.6 ± 0.508 | 20 ± 1 | > 50 |  |
| COc1cc2c(cc1OC)C(=O)/C(=C/c1ccc(NC(=O)CN3CCN(CCCO)CC3)cc1)C2 [D21] | 29.2 ± 0.8 | 95.7 ± 1.2 | 91.7 ± 1.47 | 87.3 ± 1.3 | 81.8 ± 1.1 | 70.6 ± 1 | 38.3 ± 0.678 | 19.3 ± 0.593 | 99.7 ± 2.82 | 40.6 ± 0.978 | 91.2 ± 1.21 | 26.9 ± 0.541 | 93.5 ± 1.38 | 46.2 ± 0.587 | 39.5 ± 1.82 | > 50 |  |
| COc1ccc2c(c1)C/C(=C\c1ccc(NC(=O)CN3CCN(CCN(C)C)CC3)cc1)C2=O [D22] | 52.7 ± 1.6 | 91.9 ± 1.47 | 86.6 ± 1.57 | 79 ± 1.17 | 70.4 ± 1.07 | 63.4 ± 0.988 | 43 ± 0.633 | 18.8 ± 0.521 | 99.5 ± 1.23 | 39.5 ± 0.97 | 76.9 ± 0.232 | 37.5 ± 0.411 | 85.3 ± 0.957 | 48.6 ± 0.605 | 32.5 ± 0.523 | > 50 |  |
| COc1ccc2c(c1)C(=O)/C(=C/c1ccc(NC(=O)CN3CCN(CCN(C)C)CC3)cc1)C2 [D23] | 51 ± 1.4 | 92.5 ± 1.57 | 87.6 ± 1.68 | 82.4 ± 1.21 | 70.1 ± 1.06 | 68.9 ± 0.945 | 35.5 ± 0.518 | 20.6 ± 0.418 | 99 ± 1.68 | 41.5 ± 0.741 | 78.2 ± 0.969 | 22.9 ± 0.497 | 81.3 ± 1.05 | 43.2 ± 0.884 | 2.15 ± 0.127 | > 50 |  |
| COc1cc2c(cc1OC)C(=O)/C(=C/c1ccc(NC(=O)CN3CCN(CCCN(C)C)CC3)cc1)C2 [D27] | 130 ± 4.2 | 91.2 ± 1.3 | 87.3 ± 1.12 | 82.1 ± 1.03 | 73.3 ± 0.994 | 41.2 ± 0.562 | 31.6 ± 0.389 | 22.5 ± 0.419 | 94.83 ± 0.731 | 35.9 ± 0.444 | 95.08 ± 0.687 | 44.4 ± 2.29 | 94.6 ± 1.02 | 43.1 ± 0.452 | 10.5 ± 0.467 |  | IC50 [1]: 310 ± 13 nM |
| C#CCN(C)CC(=O)Nc1ccc(/C=C2\Cc3cc(OC)ccc3C2=O)cc1 [D31] |  | 41.3 ± 0.966 | 27.1 ± 0.803 |  |  |  |  |  | 98.8 ± 2.69 | 41.6 ± 0.988 | 92.7 ± 1.31 | 23.9 ± 0.572 | 93.6 ± 1.48 | 88.7 ± 1.36 | 26 ± 1.28 |  | IC50 (MAO-B): 61.9 ± 2.8 nM; inhibition at 10 µM (MAO-B; 10^–5 M): 81.5 ± 1.24%; inhibition at 1 µM (MAO-B; 10^–6 M): 75.9 ± 1.06%; inhibition at 0.1 µM (MAO-B; 10^–7 M): 61.9 ± 1.01%; inhibition at 0.01 µM (MAO-B; 10^–8 M): 35.5 ± 0.485%; inhibition at 0.001 µM (MAO-B; 10^–9 M): 18.8 ± 0.511% |
